Experimental data from the supplement of paper PMC10307832.

What was measured:
Assay in all cases: relative viability (nuclei count vs DMSO), 5 days (fraction); higher = more cells survive
[1] = compound: CC(C)=CC[C@@H](O)C1=CC(=O)c2c(O)ccc(O)c2C1=O [Shikonin] + CS(=O)(=O)N1CCN(Cc2cc3nc(-c4cccc5[nH]ncc45)nc(N4CCOCC4)c3s2)CC1 [Pictilisib] (partner 1 µM)
Method in brief: (§1)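 After 5 days of treatment, lung cancer cells in 1536-well plates were fixed and stained in a single step (final 0.05% Triton X-100, 1% formaldehyde, 1 ug/ml Hoechst) and their nuclei counted on 4× images. Treatment had been applied by pin tool the day after seeding as one drug alone or as a fixed anchor-drug dose with five library-drug doses (not always all listed) in √10 steps. Relative viability is the nuclei count of treated wells divided by that of vehicle wells, and values are medians of duplicate plates.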

[2] = compound: CC(C)N(CCCNC(=O)Nc1ccc(C(C)(C)C)cc1)C[C@H]1O[C@@H](n2ccc3c(N)ncnc32)[C@H](O)[C@@H]1O + COc1cccc2cc(-c3nc([C@H]4CC[C@H](C(=O)O)CC4)n4ncnc(N)c34)[nH]c12 [OSI-027] (partner 0.5 µM)
Method in brief: as §1

[3] = compound: CC(C)=CC[C@@H](O)C1=CC(=O)c2c(O)ccc(O)c2C1=O [Shikonin] + CCNC(=O)c1noc(-c2cc(C(C)C)c(O)cc2O)c1-c1ccc(CN2CCOCC2)cc1 [Luminespib] (partner 0.01 µM)
Method in brief: as §1

[4] = compound: CC(C)N(CCCNC(=O)Nc1ccc(C(C)(C)C)cc1)C[C@H]1O[C@@H](n2ccc3c(N)ncnc32)[C@H](O)[C@@H]1O + NC(=O)Nc1cc(-c2cccc(F)c2)sc1C(=O)N[C@H]1CCCNC1 [AZD7762] (partner 0.2 µM)
Method in brief: as §1

Cell Line	relative viability ([1]; first compound 0.01 µM)	relative viability ([1]; first compound 0.1 µM)	relative viability ([1]; first compound 0.3162 µM)	relative viability ([1]; first compound 1 µM)	relative viability ([2]; first compound 0.08 µM)	relative viability ([2]; first compound 0.253 µM)	relative viability ([2]; first compound 0.8 µM)	relative viability ([2]; first compound 2.53 µM)	relative viability ([2]; first compound 8 µM)	relative viability ([3]; first compound 0.01 µM)	relative viability ([3]; first compound 0.1 µM)	relative viability ([3]; first compound 0.3162 µM)	relative viability ([3]; first compound 1 µM)	relative viability ([4]; first compound 0.08 µM)	relative viability ([4]; first compound 0.253 µM)	relative viability ([4]; first compound 0.8 µM)	relative viability ([4]; first compound 2.53 µM)	relative viability ([4]; first compound 8 µM)
LU99A	0.309	0.3	0.337	0.303	0.317	0.327	0.329	0.377	0.254	0.165	0.242	0.268	0.177	0.416	0.316	0.421	0.473	0.317
LXF-289	0.868	0.784	0.799	0.775	0.791	0.797	0.852	0.828	0.742	0.721	0.625	0.604	0.814	1.1	1.1	1.09	1.12	1
NCI-H23	0.508	0.514	0.497	0.378	0.594	0.596	0.574	0.681	0.645	0.226	0.196	0.227	0.143	0.252	–	0.226	0.201	0.305
NCI-H322M	0.498	0.526	0.496	0.504	0.514	0.618	0.575	0.693	0.579	0.942	0.855	0.82	0.847	0.529	0.541	0.751	0.51	0.803
NCI-H358	0.297	0.366	0.281	0.343	0.75	0.61	0.724	0.752	0.714	0.467	0.369	0.246	0.334	0.454	0.538	0.569	0.565	0.491
NCI-H441	0.621	0.436	0.485	0.437	0.589	0.587	–	0.735	0.661	0.349	0.339	0.371	0.323	1.04	1.13	–	1.07	1.33
NCI-H460	0.357	0.441	0.357	0.375	0.62	0.551	0.693	0.564	0.601	0.0384	0.034	0.0299	0.0321	0.725	0.58	0.605	0.499	0.585
NCI-H596	0.341	0.385	0.422	0.4	0.672	–	0.507	0.829	0.748	1.14	1.22	1.16	1.13	1.09	0.943	0.926	1.23	1.09
NCI-H647	0.458	0.552	0.441	0.573	0.511	0.579	–	0.742	0.586	0.169	0.142	0.147	0.159	0.457	0.523	0.509	0.366	0.414
NCI-H650	0.946	–	0.965	0.845	0.485	0.63	0.602	0.468	0.504	0.678	0.822	0.79	0.61	1.07	0.956	0.878	0.87	1.04
NCI-H727	0.326	0.353	0.311	0.431	0.635	0.597	0.521	0.495	0.666	0.412	0.462	0.233	0.329	0.634	0.624	0.649	0.328	0.694
NCI-H838	0.529	0.601	0.443	0.452	0.359	0.408	0.367	0.388	0.476	0.369	0.237	0.317	0.258	0.864	0.909	0.912	0.806	0.95
NCI-H1355	0.407	0.498	0.408	0.445	0.375	0.473	0.374	0.472	0.428	0.724	0.795	0.79	0.714	0.703	0.68	0.642	0.75	0.695
NCI-H1395	0.603	0.695	0.584	0.652	0.67	0.631	0.57	0.62	0.719	0.672	0.793	0.744	0.655	0.424	0.412	0.42	0.421	0.38
NCI-H1437	0.424	0.421	0.416	0.477	0.804	0.831	0.81	0.891	0.867	1.17	1.18	1.1	1.1	1.13	1.06	1.15	1.07	1.14
NCI-H1651	0.612	0.562	0.669	0.64	0.671	0.556	0.653	0.811	0.77	0.914	0.821	0.714	0.984	0.545	0.562	0.468	0.46	0.457
NCI-H1666	0.643	0.358	0.394	0.299	0.745	1.04	0.611	0.829	0.755	0.986	1.08	0.932	1.04	0.924	0.898	0.758	0.844	0.773
NCI-H1734	0.495	0.551	0.441	0.494	0.563	0.612	0.627	0.564	0.6	0.173	0.199	0.216	0.131	0.546	0.441	0.634	0.565	0.466
NCI-H1755	0.468	0.472	0.406	0.472	0.801	0.753	0.672	0.717	0.667	0.428	0.439	0.576	0.378	0.473	0.401	0.44	0.444	0.426
NCI-H1792	0.306	0.206	0.293	0.308	0.693	0.702	0.716	0.586	0.72	0.554	0.361	0.371	0.544	0.68	–	0.46	0.569	0.601
NCI-H1793	0.359	0.251	0.241	0.304	0.27	–	0.228	0.274	0.291	0.164	0.196	0.155	0.535	0.614	–	0.386	0.437	0.426
NCI-H1915	0.975	1.09	1.05	0.958	0.58	0.732	0.651	0.645	0.624	1	0.758	0.849	0.85	0.674	0.726	0.607	0.668	0.56
NCI-H1944	0.352	0.379	0.353	0.392	0.413	0.41	0.401	0.452	0.405	0.704	0.613	0.889	0.8	0.678	0.415	0.537	0.559	0.575
NCI-H1975	0.287	0.283	0.268	0.294	0.729	0.672	0.403	0.577	0.598	0.178	0.27	0.248	0.167	0.701	0.686	–	0.642	0.53
NCI-H1993	–	0.84	0.803	0.792	0.521	–	–	0.578	0.56	1.08	0.834	0.834	0.531	0.659	–	0.941	0.777	0.673
NCI-H2085	0.41	0.47	0.424	0.411	0.847	0.621	0.705	0.757	1	0.443	0.471	0.336	0.379	0.979	0.766	0.921	1.08	1
NCI-H2087	0.767	1.05	0.843	0.861	0.443	0.707	0.402	0.653	0.586	0.185	0.167	0.156	0.153	1.31	1.26	1.51	1.38	1.29
NCI-H2126	0.508	0.5	0.496	0.553	0.627	0.77	0.734	0.715	0.672	1.01	1.05	0.966	0.891	0.913	1.01	0.956	0.988	0.965
NCI-H2170	0.291	0.34	0.338	0.326	0.675	0.7	0.669	0.709	0.748	0.8	0.703	0.632	0.562	0.934	0.79	0.66	0.836	0.857
NCI-H2347	0.701	0.764	0.582	0.573	0.459	0.427	0.413	0.574	0.509	0.573	0.477	0.471	0.526	0.795	0.815	0.605	0.803	0.746
